From US20160319277A1, “METHODS OF IMPROVED PROTEIN PRODUCTION USING MIRNAs AND SIRNAs” (THE JOHNS HOPKINS UNIVERSITY, priority 2015, published 2016)
Read-outs that look alike come from different tables or passages of the source.

Tested on: HEK-CMV-Luc2-Hygro cells
Test: High-throughput genome-wide siRNA screen and validation screen for luciferase expression
Format: cell-based, human
Conditions: for per_cell / VIA: Table 3; for per_cell: per cell luciferase yield relative to negative control; for VIA: viable cell density as % of negative control; for Luciferase activity (%) / Per cell luciferase yield (%) / Viable cell number (%): Table 6, polyamine pathway gene siRNAs
Method: The Silencer Select™ Human genome siRNA library (Ambion), which targets 21,585 human genes with 3 siRNAs per gene, was used for screening. Each siRNA is arrayed in an individual well (Corning 3570, 384 well, white, solid bottom plates). The transfection was done in duplicates: 0.8 pmol of each siRNA was spotted to a well of a 384-well plate (Corning) and 20 μL of serum-free DMEM containing 0.07 μL of Lipofectamine™ RNAiMax (Life Technologies) was then added to each well. This lipid-siRNA mixture was incubated at ambient temperature for 30 min prior to addition of 4000 cells in 20 μL of DMEM containing 20% FBS (Gibco). After incubating the transfected cells at 37° C. in 5% CO2 for 72 hours, 20 μL of ONE-Glo™ Reagent (Promega) was added to one set of replicates for ‘overall luciferase yield’ quantification and 20 μL of CellTiter-Glo™ Reagent (Promega) was added to the second set of replicates for ‘viable cell density’ measurement. All plates were incubated at room temperature for 20 minutes to stabilize the luminescent signal and the signal was then measured with PerkinElmer Envision 2104 Multilabel™ plate reader.
The 56 genes which got targeted by at least two independent siRNAs (out of three) resulting in enhanced luciferase production with MAD-based z-score>3 from the primary screen were subjected to validation screen using 3 additional Silencer™ siRNAs (Ambion) with different sequences from those used in the primary screen. […] The transfection and assay processes were-the same as the primary genome-wide screen. Data visualization was performed in R computational environment (available on the World Wide Web at R-project.org/) by using ‘hexbin’ and ‘ggplot2’ packages.
The screen generated end-point data for ‘overall luciferase yield’ and ‘viable cell density’ in each well. For each plate, the median value of the negative control wells was set as 100% and was used to normalize corresponding sample wells. The ‘overall luciferase yield’ and ‘viable cell density’ were exported as % of negative control and the median absolute deviation (MAD)-based z-score was calculated for each sample.

[1] = Table 4, primary screen, 72 h, negative control = 100%

| Substance | Viable cell density (%) [1] [%] | per cell luciferase yield (%) [1] [%] | per_cell (primary screen, 72 h) | VIA (primary screen, 72 h) | other results |
| --- | --- | --- | --- | --- | --- |
| 162 (CGAUAUGCUUUUCUACGUUTT; chemistry not given here; listed as Homo sapiens) [compound 162] | 76.131 | 235.013 |  |  |  |
| 88 (GAGCAGAGAUCAUAACCAATT; chemistry not given here; listed as Homo sapiens) [compound 88] |  |  | 141.1 | 108.2 |  |
| 113 (GCAUCAGCUCACAACAAAATT; chemistry not given here; listed as Homo sapiens) [compound 113] | 35.915 | 409.361 |  |  |  |
| 133 (GAACUUCAAUGGAAAACAUTT; chemistry not given here; listed as Homo sapiens) [compound 133] | 63.577 | 250.367 |  |  |  |
| 182 (CAGUUACUUUCAAAACUCUTT; chemistry not given here; listed as Homo sapiens) [compound 182] | 91.714 | 202.960 |  |  |  |
| 47 (GUACCUGCGGGAUUACUCATT; chemistry not given here; listed as Homo sapiens) [compound 47] |  |  | 160.7 | 90.99 |  |
| 150 (CGCUUUAACUGGAAGCUCUTT; chemistry not given here; listed as Homo sapiens) [compound 150] | 103.662 | 146.993 |  |  |  |
| 59 (AGAUCUUUGUCAAGGUGUATT; chemistry not given here; listed as Homo sapiens) [compound 59] |  |  | 153.4 | 96.26 |  |
| 67 (GGAUGACGAGCUGAACUUUTT; chemistry not given here; listed as Homo sapiens) [compound 67] |  |  | 140.1 | 113.4 |  |
| 53 (GAACAAAAUAGACCUCUUATT; chemistry not given here; listed as Homo sapiens) [compound 53] |  |  | 162.7 | 101.9 |  |
| 179 (GUACCUGCGGGAUUACUCATT; chemistry not given here; listed as Homo sapiens) [compound 179] | 90.987 | 160.687 |  |  |  |
| 172 (GGAUAUUGGAGGCUAGUCATT; chemistry not given here; listed as Homo sapiens) [compound 172] | 289.677 | 157.868 |  |  |  |
| 87 (GGUGUAAUAAUGUCCUUUATT; chemistry not given here; listed as Homo sapiens) [compound 87] |  |  | 188.1 | 79.39 |  |
| 108 (CGGAAUCAAUGAUCCUGUATT; chemistry not given here; listed as Homo sapiens) [compound 108] | 71.395 | 212.652 |  |  |  |
| 165 (AGGUCAAUGUGACUUUCCATT; chemistry not given here; listed as Homo sapiens) [compound 165] | 105.029 | 161.785 |  |  |  |
| 151 (GAAACUGCAUGAGAAGACATT; chemistry not given here; listed as Homo sapiens) [compound 151] | 59.084 | 288.857 |  |  |  |
| 96 (ACACUCUUGUGGUCAAGAATT; chemistry not given here; listed as Homo sapiens) [compound 96] | 73.809 | 227.741 |  |  |  |
| 55 (CAACGGGACUAUUAUGAUATT; chemistry not given here; listed as Homo sapiens) [compound 55] |  |  | 163.4 | 89.58 |  |
| 41 (CAACAGUACUUACCGAUGUTT; chemistry not given here; listed as Homo sapiens) [compound 41] |  |  | 141.8 | 115.5 |  |
| 224 (GCAUGUAUCUGCUUGAUAUTT; chemistry not given here; listed as Homo sapiens) [compound 224] |  |  |  |  | Luciferase activity (%): 20.0%; Per cell luciferase yield (%): 39.4%; Viable cell number (%): 50.7% |
| 40 (CGAUGUUCGUGGACAUUCUTT; chemistry not given here; listed as Homo sapiens) [compound 40] |  |  | 234.6 | 80.01 |  |

| Substance | Viable cell density (%) [1] [%] | per cell luciferase yield (%) [1] [%] | per_cell (primary screen, 72 h) | VIA (primary screen, 72 h) | other results |
| --- | --- | --- | --- | --- | --- |
| 134 (GAUCGUUUGAGAGAACAAATT; chemistry not given here; listed as Homo sapiens) [compound 134] | 77.107 | 210.336 |  |  |  |
| 189 (GAACAAAAUAGACCUCUUATT; chemistry not given here; listed as Homo sapiens) [compound 189] | 101.897 | 162.677 |  |  |  |
| 121 (CAUUGGUUUUGAUGAGUAUTT; chemistry not given here; listed as Homo sapiens) [compound 121] |  | 226.659 |  |  | Viable cell density (%): 64.385% |
| 175 (CAUUGGUGUUGACAAUCCATT; chemistry not given here; listed as Homo sapiens) [compound 175] | 85.046 | 189.850 |  |  |  |
| 68 (CAGGUAGUGUAAGCCCUCATT; chemistry not given here; listed as Homo sapiens) [compound 68] |  |  | 303 | 66.87 |  |
| 185 (GAAGAAGACUCUGUACUCATT; chemistry not given here; listed as Homo sapiens) [compound 185] | 66.511 | 215.853 |  |  |  |
| 38 (GCAGUGGACAUAGAAGAGATT; chemistry not given here; listed as Homo sapiens) [compound 38] |  |  | 140.7 | 110.8 |  |
| 204 (CUCCCGCAGUUGAACAUCATT; chemistry not given here; listed as Homo sapiens) [compound 204] | 109.377 | 136.174 |  |  |  |
| 126 (GGUGCUCUCGGUUGCACAATT; chemistry not given here; listed as Homo sapiens) [compound 126] | 82.333 | 187.362 |  |  |  |
| 97 (GAUGAAGAAUGAUAAGUCATT; chemistry not given here; listed as Homo sapiens) [compound 97] | 96.599 | 184.201 |  |  |  |
| 202 (GGAUGACGAGCUGAACUUUTT; chemistry not given here; listed as Homo sapiens) [compound 202] | 113.437 | 140.103 |  |  |  |
| 210 (CAAUGGAACAAUCAAAGUUTT; chemistry not given here; listed as Homo sapiens) [compound 210] | 89.607 | 180.764 |  |  |  |
| 116 (UGGUCUCAAUGACAGUAGATT; chemistry not given here; listed as Homo sapiens) [compound 116] | 53.645 | 370.824 |  |  |  |
| 192 (GCAUCUGUCCGAUCGCUCUTT; chemistry not given here; listed as Homo sapiens) [compound 192] | 105.514 | 143.889 |  |  |  |
| 56 (CAACGGGACUAUUAUGAUATT; chemistry not given here; listed as Homo sapiens) [compound 56] |  |  | 163.5 | 97.39 |  |
| 156 (GAUUAUCCUUGUACUUUGATT; chemistry not given here; listed as Homo sapiens) [compound 156] | 101.904 | 141.842 |  |  | Luciferase activity (%): 144.5%; Per cell luciferase yield (%): 141.8%; Viable cell number (%): 101.9% |
| 164 (GCAGGCACAUGGUUCCUCUTT; chemistry not given here; listed as Homo sapiens) [compound 164] | 83.512 | 259.478 |  |  |  |
| 95 (CAAGUCACCUGUUACCUCATT; chemistry not given here; listed as Homo sapiens) [compound 95] | 88.955 | 171.805 |  |  |  |
| 170 (CCAACAAGGAAGACGAAAATT; chemistry not given here; listed as Homo sapiens) [compound 170] | 267.320 | 284.062 |  |  |  |
| 69 (CCCUCCUACUAUUACCCGUTT; chemistry not given here; listed as Homo sapiens) [compound 69] |  |  | 163 | 96.87 |  |
